Assays:
[1] = tested on: PBMCs from healthy donors or cancer patients; assay: In vitro peptide stimulation of PBMCs and IFNγ ELISPOT; format: cell-based, human; settings: for IFNγ ELISPOT response, screening: PBMCs of five healthy HLA-A2+ donors, restimulated after 12-14 days; for IFNγ ELISPOT response, validation (repetition): healthy donors, repeat ELISPOT (FIG. 5); for IFNγ ELISPOT response in 17 HDs: 17 healthy donors of undetermined HLA-type
Experimental: PBMCs from healthy donors or cancer patients were subjected to in vitro stimulation with ARG2-derived peptides by plating the cells with 10 μM peptide. The following day, the cells received low-dose IL-2 (120 U/ml) treatment. At 10-14 days after peptide stimulation, the cells were used for IFNγ ELISPOT. ELISPOT plates were coated with […] IFNγ capture antibody (MabTech) overnight. The next day, the plates were washed and blocked in X-vivo media followed by the plating of 2.5-3.5×10^5 PBMCs per well for ELISPOT, with and without restimulation with 5 μM peptide. A minimum of triplicate wells were set up pr. condition. The cells were incubated 14-16 hours before they were washed and a biotin-conjugated secondary antibody (Mabtech) was added, followed by a 2-hour incubation. Next, the cells were washed again, followed by incubation with streptavidin-conjugated alkaline phosphatase (Mabtech) for 1 hour. Finally, spots were developed by addition of BCIP/NBT substrate (Mabtech). Tap water was used to stop the reaction. Spots corresponding to IFNγ secretion were quantified by visualization on a CTL ImmunoSpot S6 Ultimate-V analyzer with ImmunoSpot software version 5.1. Peptide-specific IFNγ secreting cells were calculated by subtracting the average spot count in control wells from the average spot count in peptide-stimulated wells. […] Peptide pulsing was performed by incubating the target cells with 20 μM peptide for 1 hour, followed by two washes to remove unbound peptide. Effector cells with added peptide served as the positive control and […] plated without […] as the negative control. In ELISPOTs assays with immune cells as target cells, wells containing only effector cells were also included as controls. The average spot count from replicate wells was subtracted from the spot count of effector cells plated with the respective target cells. These 15 peptides ([…] to […]) were screened in peripheral blood mononuclear cells (PBMCs) from five healthy donors (HD), who were confirmed to be HLA-A2 positive (HLA-A2^+). PBMCs were stimulated with each peptide in vitro and restimulated in IFNγ ELISPOT after 12-14 days of culture.

[2] = tested on: HLA-A1+, HLA-C7+ or HLA-B8+ cancer cell lines (FM6, FM28, FM82, OCI-M2); assay: IFNγ ELISPOT of A2S05-specific T cells with peptide-pulsed cancer cell lines; format: cell-based, human; settings: for IFNγ ELISPOT reactivity of A2S05-specific T cells to peptide-pulsed HLA-B8+ FM6: metastatic malignant melanoma cell line FM6
Experimental: Peptide-specific IFNγ secreting cells were calculated by subtracting the average spot count in control wells from the average spot count in peptide-stimulated wells. ELISPOT assays with ARG2-specific T cells (effector cells) and various immune cells or cancer cells as target cells were set up by adding 3×10^4-5×10^4 effector cells to ELISPOT wells followed by 5×10^3-10^4 target cells. Peptide pulsing was performed by incubating the target cells with 20 μM peptide for 1 hour, followed by two washes to remove unbound peptide. Effector cells with added peptide served as the positive control and target cells plated without […] as the negative control. In ELISPOTs assays with immune cells as target cells, wells containing only effector cells were also included as controls. The average spot count from replicate wells was subtracted from the spot count of effector cells plated with the respective target cells.
(§1) ARG2-specific T-cell cultures were obtained by stimulation of PBMCs with ARG2-S05 peptide, followed by low-dose IL-2 (120 U/mL) the next day. At 12 days after peptide stimulation, the cells were re-stimulated with peptide, and IFNγ-secreting cells were isolated using magnetic beads. Next, these cells were expanded using a rapid expansion protocol, including feeder cells, CD3 antibody, and high-dose IL-2 (3000-6000 U/mL). On day 16-17, culture specificity was determined by stimulation with ARG2-S05 peptide and determination of the cytokine release by ICS.
FM6 was confirmed to be HLA-B8^+ by flow cytometry and confirmed to express ARG2 by RT-qPCR (FIG. 6).

PBMCs = assay: Ex vivo IFNγ ELISPOT; format: cell-based, human; settings: donors with strong in vitro responses
Experimental: PBMCs were thawed and rested overnight. The next day, 9×10^5 cells were plated pr. well. Control and peptide stimulations were performed in at least triplicate. The rest of the protocol was performed as described above.

[3] = tested on: PBMCs / peptide-specific T-cell cultures; assay: Intracellular cytokine staining for TNFα and IFNγ; format: cell-based, human; settings: for T-cell subset that responds (ICS for TNFα and IFNγ): peptide-stimulated healthy donor PBMCs
Experimental: PBMCs were in vitro stimulated with peptide as described above. At 10-14 days post-simulation, the cells were used for intracellular cytokine staining. […] After a 4-hour incubation period, the cells were washed and stained for the extracellular markers CD3-APC/H7, CD4-FITC, and CD8-PerCP, and dead cells were stained with FVS-510. Next, the cells were permeabilized using Fixation/Permeabilization buffer (Invitrogen), followed by staining with IFNγ-APC and TNFα-BV421. Data were acquired using a BD Canto II flow cytometer and analyzed using FlowJo.
as §1
To further characterize the ARG2-specific CD8^+ T cells, A2S05-specific T-cell cultures from four donors were established. Briefly, donor PBMCs were stimulated with A2S05 in vitro. 12 days later, peptide-specific T cells were re-stimulated and isolated using an IFNγ capture kit. IFNγ-producing cells were expanded using a rapid expansion protocol and the specificity was examined at 16-17 days after expansion by ICS for IFNγ and TNF.

[4] = tested on: splenocytes of vaccinated mice; settings: previously identified by the inventors; cited from earlier work
[5] = tested on: murine model of lung cancer; settings: previously shown by the inventors; cited from earlier work
[6] = tested on: splenocytes of vaccinated mice; assay: Murine IFNγ ELISPOT on splenocytes; format: in vivo, C57BL/6 mice; settings: splenocytes of ARG2-vaccinated Pan02 mice plated with ARG1 peptide
Experimental: The purity of all synthesized peptides was >90%.
Mice were sacrificed at endpoint for tumor studies and one week after the last vaccination for the remaining studies. Spleens were harvested, smashed through a 70 μm filter, and red blood cells were lysed with Red Blood Cell Lysis Solution (Qiagen). 8×10^5 splenocytes were plated per well in IFNγ ELISPOT plates. IFNγ ELISPOT was performed as previously described. Tumors were harvested, cut into smaller pieces and enzymatically digested in RPMI medium containing 2.1 mg/ml collagenase type 1 (Worthington), 75 μg/ml DNase I (Worthington), 5 mM CaCl2, and 1% P/S. Cells were filtered through a 70 μm cell strainer and red blood cells were lysed as described above. CD45+tumor infiltrating lymphocytes (TILs) were isolated from tumor single-cell suspensions with CD45 microbeads (for MC38 and LL2 tumors) (Miltenyi Biotec) or with CD45 (TIL) microbeads (for B16-F10 tumors) (Miltenyi Biotec). The isolated CD45+ cells were rested overnight. 5×10^5 CD45+ cells were plated per well in IFNγ ELISPOT plates. For phenotyping ARG2 responses, CD8+ and CD4^+ T cells were isolated from the spleen of vaccinated mice with CD8a (Ly-2) and CD4 (L3T4) microbeads (Miltenyi Biotec), respectively, following manufacturer's instruction. Isolated T cells were rested overnight. […]

## LLSALDLVEV (listed as Homo sapiens) [A2S15, human ARG2 positions 288-297]
[1]
  IFNγ ELISPOT response, screening: significant responses in PBMCs from three or more donors
  IFNγ ELISPOT response, validation (repetition): did not show significant responses

## SLRGSLSRLLQTRVHSILKKSVHSVAVIGAPFS (listed as Homo sapiens) [A2L2, reference compound]
[1]
  IFNγ ELISPOT response in 17 HDs: Strong and frequent responses

## QIVKNPRSV (listed as Homo sapiens) [ARG1_65-73, reference compound]
[2]
  IFNγ ELISPOT reactivity of A2S05-specific T cells to peptide-pulsed HLA-B8+ FM6: lack of reactivity

## NLIVNPRSV (listed as Homo sapiens) [A2S05, human ARG2 positions 84-92]
[1]
  IFNγ ELISPOT response in 17 HDs: only few responses
  IFNγ ELISPOT response, screening: significant responses in PBMCs from three or more donors
  IFNγ ELISPOT response, validation (repetition): strong IFNγ ELISPOT responses
[1]; 38 donors with known HLA-A2 status (13 cancer patients, 25 healthy donors)
  donors with statistically significant IFNγ ELISPOT responses: 10 out of the 38
[1]; responses in both HLA-A2+ and HLA-A2- donors
  HLA-A2 restriction from donor responses: not HLA-A2 restricted
PBMCs
  ex vivo IFNγ ELISPOT response: strong and significant responses in PBMCs ex vivo
[3]; four donors, 16-17 days after expansion
  specificity of expanded peptide-specific T-cell cultures (ICS for IFNγ and TNF): Highly specific CD8+cultures from all four donors
[3]
  T-cell subset that responds (ICS for TNFα and IFNγ): responses were from CD8^+ T-cells
[2]; T cells from HD78 and HD93
  IFNγ ELISPOT reactivity of A2S05-specific T cells to peptide-pulsed HLA-A1+ and HLA-C7+ cell lines: no reactivity
[2]; all four T-cell cultures, FM28, FM82, OCI-M2
  IFNγ ELISPOT reactivity of A2S05-specific T cells to additional HLA-B8+ cell lines: reactivity against three additional HLA-B8^+ cell lines
[2]
  IFNγ ELISPOT reactivity of A2S05-specific T cells to peptide-pulsed HLA-B8+ FM6: recognition and reactivity activity
[2]; recognition and cytolytic activity against HLA-B8+ lines
  HLA restriction of the peptide: HLA-B8 restriction

## LSPPNIVYI (listed as Mus musculus) [mARG2_188-196]
[4]
  T-cell responses upon a single vaccination: strong and frequent T-cell responses
[5]
  tumor growth in murine model of lung cancer: induced tumor growth delay

## ISAKDIVYI (listed as Mus musculus) [mARG1_169-177, murine ARG1 peptide from the corresponding region, control for specific recognition]
[6]
  cross-reactivity of vaccine-induced responses to ARG1 peptide: no cross-reactivity

## GLLSALDLV (listed as Homo sapiens) [A2S14, human ARG2 positions 287-295]
[1]
  IFNγ ELISPOT response, screening: significant responses in PBMCs from three or more donors
  IFNγ ELISPOT response, validation (repetition): strong IFNγ ELISPOT responses
[3]
  T-cell subset that responds (ICS for TNFα and IFNγ): reaction was from CD4^+ T cells
